Test results taken from patent US10093683B2, “Factor XIa inhibitors” (Merck Sharp & Dohme Corp., priority 2014, dated 2018).
Where a name gives a salt, the structure may show the parent alone.

Target: human Factor XIa (Homo sapiens (Human), UniProt P03951)
Test: Factor XIa Assay
Type: biochemical
Settings: read-out: FXIa Ki
In short: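 Ki derived from the dependence of Vo/Vi on inhibitor concentration under a competitive-inhibition model, after pre-equilibration of enzyme and inhibitor. Reaction: 40 pM human FXIa, 100 μM Z-Gly-Pro-Arg-AFC, HEPES 50 mM pH 7.4 with NaCl, CaCl2 and PEG 8000; run at room temperature or 37° C.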

Chain of human Factor XIa (P03951 388-625): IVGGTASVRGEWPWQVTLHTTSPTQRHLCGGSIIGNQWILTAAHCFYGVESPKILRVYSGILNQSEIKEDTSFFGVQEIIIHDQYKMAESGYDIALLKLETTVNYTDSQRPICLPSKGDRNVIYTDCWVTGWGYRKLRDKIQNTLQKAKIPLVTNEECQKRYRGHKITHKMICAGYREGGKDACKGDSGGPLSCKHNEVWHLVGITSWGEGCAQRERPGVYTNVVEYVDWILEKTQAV
Chain of human Factor XIa (P03951 19-387 partner): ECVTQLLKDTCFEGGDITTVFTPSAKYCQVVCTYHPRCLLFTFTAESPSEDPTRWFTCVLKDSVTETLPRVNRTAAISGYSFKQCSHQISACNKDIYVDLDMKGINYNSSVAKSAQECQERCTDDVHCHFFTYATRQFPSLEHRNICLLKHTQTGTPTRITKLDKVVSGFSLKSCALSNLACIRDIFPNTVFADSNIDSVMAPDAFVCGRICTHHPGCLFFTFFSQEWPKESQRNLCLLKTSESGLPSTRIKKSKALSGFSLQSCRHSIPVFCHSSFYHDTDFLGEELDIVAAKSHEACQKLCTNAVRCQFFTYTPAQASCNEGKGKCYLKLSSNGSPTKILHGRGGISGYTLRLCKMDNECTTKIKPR

Ki [nM]	SMILES
2150	O=C1Nc2ccc(Cl)cc2C2(CCN(C(=O)[C@H](Cc3ccccc3)NC(=O)c3ccon3)C2)O1 (stereo partly drawn) [Example 156]
3350	O=C1Nc2ccc(Cl)cc2C2(CCN(C(=O)[C@H](Cc3ccccc3)NC(=O)C3CCC(CO)CC3)C2)O1 (stereo partly drawn) [Example 157]
752	O=C1Nc2ccc(Cl)cc2C2(CCN(C(=O)[C@H](Cc3ccccc3)NC(=O)c3ccc(CO)nc3)C2)O1 (stereo partly drawn) [Example 158]
743	O=C1Nc2ccc(Cl)cc2C2(CCN(C(=O)[C@H](Cc3ccccc3)NC(=O)c3ccc(-n4ccnc4)nc3)C2)O1 (stereo partly drawn) [Example 159]
5000	O=C1Nc2ccc(Cl)cc2C2(CCN(C(=O)[C@H](Cc3ccccc3)NC(=O)c3ccc(C4(C(=O)O)CC4)cc3)C2)O1 (stereo partly drawn) [Example 160, 1-(4-(((2S)-1-(6-chloro-2-oxo-1,2-dihydrospiro[benzo[d][1,3]oxazine-4,3′-pyrrolidin]-1′-yl)-1-oxo-3-phenylpropan-2-yl)carbamoyl)phenyl)cyclopropanecarboxylic acid]
4490	O=C1Nc2ccc(Cl)cc2C2(CCN(C(=O)[C@H](Cc3ccccc3)NC(=O)C3(c4ccc(C(=O)O)cc4)CC3)C2)O1 (stereo partly drawn) [Example 161]
594	O=C1Nc2ccc(Cl)cc2C2(CCN(C(=O)[C@H](Cc3ccccc3)NC(=O)c3ccc(NC(=O)C(F)(F)F)cc3)C2)O1 (stereo partly drawn) [Example 162, N-((2S)-1-(6-chloro-2-oxo-1,2-dihydrospiro[benzo[d][1,3]oxazine-4,3′-pyrrolidin]-1′-yl)-1-oxo-3-phenylpropan-2-yl)-4-(2,2,2-trifluoroacetamido)benzamide]
63.2	CS(=O)(=O)Nc1ccc(C(=O)N[C@@H](Cc2ccccc2)C(=O)N2CCC3(C2)OC(=O)Nc2ccc(Cl)cc23)cc1 (stereo partly drawn) [Example 163, N-((2S)-1-(6-chloro-2-oxo-1,2-dihydrospiro[benzo[d][1,3]oxazine-4,3′-pyrrolidin]-1′-yl)-1-oxo-3-phenylpropan-2-yl)-4-(methylsulfonamido)benzamide]
184	COC(=O)Nc1ccc(C(=O)N[C@@H](Cc2ccccc2)C(=O)N2CCC3(C2)OC(=O)Nc2ccc(Cl)cc23)nc1 (stereo partly drawn) [Example 166]
4160	O=C1Nc2ccc(Cl)cc2C2(CCN(C(=O)[C@H](Cc3ccccc3)NC(=O)c3cnc4[nH]c(=O)oc4c3)C2)O1 (stereo partly drawn) [Example 167]
576	CC(=O)Nc1cc(C(=O)N[C@@H](Cc2ccccc2)C(=O)N2CCC3(C2)OC(=O)Nc2ccc(Cl)cc23)ccn1 (stereo partly drawn) [Example 168]
774	O=C1Nc2ccc(Cl)cc2C2(CCN(C(=O)[C@H](Cc3ccccc3)NC(=O)c3cccc(N4CCNC4=O)c3)C2)O1 (stereo partly drawn) [Example 169, N-((2S)-1-(6-chloro-2-oxo-1,2-dihydrospiro[benzo[d][1,3]oxazine-4,3′-pyrrolidin]-1′-yl)-1-oxo-3-phenylpropan-2-yl)-3-(2-oxoimidazolidin-1-yl)benzamide]
508	Cc1nc(N)sc1C(=O)N[C@@H](Cc1ccccc1)C(=O)N1CCC2(C1)OC(=O)Nc1ccc(Cl)cc12 (stereo partly drawn) [Example 170]
328	O=C1Nc2ccc(Cl)cc2C2(CCN(C(=O)[C@H](Cc3ccccc3)NC(=O)c3ccc4c(c3)C(=O)NC4)C2)O1 (stereo partly drawn) [Example 172]
385	C[C@@H]1NC(=O)O[C@H]1c1cccc(C(=O)N[C@@H](Cc2ccccc2)C(=O)N2CCC3(C2)OC(=O)Nc2ccc(Cl)cc23)c1 (stereo partly drawn) [Example 173, N-((2S)-1-(6-chloro-2-oxo-1,2-dihydrospiro[benzo[d][1,3]oxazine-4,3′-pyrrolidin]-1′-yl)-1-oxo-3-phenylpropan-2-yl)-3-((4S,5S)-4-methyl-2-oxooxazolidin-5-yl)benzamide]
261	O=C1Cc2ccc(C(=O)N[C@@H](Cc3ccccc3)C(=O)N3CCC4(C3)OC(=O)Nc3ccc(Cl)cc34)cc2N1 (stereo partly drawn) [Example 174]
212	Nc1nc(C(=O)N[C@@H](Cc2ccccc2)C(=O)N2CCC3(C2)OC(=O)Nc2ccc(Cl)cc23)cs1 (stereo partly drawn) [Example 175]
59.8	O=C1Nc2ccc(Cl)cc2C2(CCN(C(=O)[C@H](Cc3ccccc3)NC(=O)c3ccc4[nH]cnc4c3)C2)O1 (stereo partly drawn) [Example 176]
559	O=C1Nc2ccc(Cl)cc2C2(CCN(C(=O)[C@H](Cc3ccccc3)NC(=O)c3cc(O)ncn3)C2)O1 (stereo partly drawn) [Example 177]
251	O=C1Nc2ccc(Cl)cc2C2(CCN(C(=O)[C@H](Cc3ccccc3)NC(=O)c3ccc(O)c(F)c3)C2)O1 (stereo partly drawn) [Example 178, N-((2S)-1-(6-chloro-2-oxo-1,2-dihydrospiro[benzo[d][1,3]oxazine-4,3′-pyrrolidin]-1′-yl)-1-oxo-3-phenylpropan-2-yl)-3-fluoro-4-hydroxybenzamide]
454	N=C(N)Nc1ccc(C(=O)N[C@@H](Cc2ccccc2)C(=O)N2CCC3(C2)OC(=O)Nc2ccc(Cl)cc23)cc1 (stereo partly drawn) [Example 179, N-((2S)-1-(6-chloro-2-oxo-1,2-dihydrospiro[benzo[d][1,3]oxazine-4,3′-pyrrolidin]-1′-yl)-1-oxo-3-phenylpropan-2-yl)-4-guanidinobenzamide]

Ki [nM]	SMILES
56.7	Nc1nc2cc(C(=O)N[C@@H](Cc3ccccc3)C(=O)N3CCC4(C3)OC(=O)Nc3ccc(Cl)cc34)ccc2[nH]1 (stereo partly drawn) [Example 180]
137	O=C1Nc2ccc(Cl)cc2C2(CCN(C(=O)[C@H](Cc3ccccc3)NC(=O)c3ccc4cn[nH]c4c3)C2)O1 (stereo partly drawn) [Example 182]
86.9	O=C1Nc2ccc(Cl)cc2C2(CCN(C(=O)[C@H](Cc3ccccc3)NC(=O)c3ccc4oc(=O)[nH]c4c3)C2)O1 (stereo partly drawn) [Example 183]
5000	O=C1Nc2ccc(Cl)cc2C2(CCN(C(=O)[C@H](Cc3ccccc3)NC(=O)c3ccc4c(c3)S(=O)(=O)NC4=O)C2)O1 (stereo partly drawn) [Example 184]
96	Nc1n[nH]c2ccc(C(=O)N[C@@H](Cc3ccccc3)C(=O)N3CCC4(C3)OC(=O)Nc3ccc(Cl)cc34)cc12 (stereo partly drawn) [Example 185]
166	COCCOC(=O)Nc1ccc(C(=O)N[C@@H](Cc2ccccc2)C(=O)N2CCC3(C2)OC(=O)Nc2ccc(Cl)cc23)cn1 (stereo partly drawn) [Example 186]
151	O=C1CCCc2cc(C(=O)N[C@@H](Cc3ccccc3)C(=O)N3CCC4(C3)OC(=O)Nc3ccc(Cl)cc34)ccc2N1 (stereo partly drawn) [Example 187]
76.7	O=C(Nc1ccc(C(=O)N[C@@H](Cc2ccccc2)C(=O)N2CCC3(C2)OC(=O)Nc2ccc(Cl)cc23)cc1)OCCN1CCNCC1 (stereo partly drawn) [Example 190, 2-(Piperazin-1-yl)ethyl (4-(((2S)-1-(6-chloro-2-oxo-1,2-dihydrospiro[benzo[d][1,3]oxazine-4,3′-pyrrolidin]-1′-yl)-1-oxo-3-phenylpropan-2-yl)carbamoyl)phenyl)carbamate 2 trifluoroacetic acid salt]
99.7	O=C1C[S+]([O-])c2cc(C(=O)N[C@@H](Cc3ccccc3)C(=O)N3CCC4(C3)OC(=O)Nc3ccc(Cl)cc34)ccc2N1 (stereo partly drawn) [Example 192, N-((2S)-1-(6-chloro-2-oxo-1,2-dihydrospiro[benzo[d][1,3]oxazine-4,3′-pyrrolidine]-1′-yl)-1-oxo-3-phenylpropan-2-yl)-3-oxo-3,4-dihydro-2H-benzo[b][1,4]thiazine-7-carboxamide 1-oxide]
145	O=C1CS(=O)(=O)c2cc(C(=O)N[C@@H](Cc3ccccc3)C(=O)N3CCC4(C3)OC(=O)Nc3ccc(Cl)cc34)ccc2N1 (stereo partly drawn) [Example 193, N-((2S)-1-(6-chloro-2-oxo-1,2-dihydrospiro[benzo[d][1,3]oxazine-4,3′-pyrrolidine]-1′-yl)-1-oxo-3-phenylpropan-2-yl)-3-oxo-3,4-dihydro-2H-benzo[b][1,4]thiazine-7-carboxamide 1,1-dioxide]
63.4	COC(=O)Nc1ccc(C(=O)N[C@@H](Cc2ccccc2)C(=O)N2CCC3(C2)OC(=O)Nc2ccc(Cl)cc23)s1 (stereo partly drawn) [Example 196, Methyl (5-(((2S)-1-(6-chloro-2-oxo-1,2-dihydrospiro[benzo[d][1,3]oxazine-4,3′-pyrrolidin]-1′-yl)-1-oxo-3-phenylpropan-2-yl)carbamoyl)thiophen-2-yl)carbamate]
91.3	COC(=O)Nc1ccc(C(=O)N[C@@H](CC2CC2)C(=O)N2CCC[C@@]3(C2)OC(=O)Nc2ccc(Cl)cc23)c(Cl)c1 [Example 201, methyl (3-chloro-4-(((S)-1-((R)-6-chloro-2-oxo-1,2-dihydrospiro[benzo[d][1,3]oxazine-4,3′-piperidin]-1′-yl)-3-cyclopropyl-1-oxopropan-2-yl)carbamoyl)phenyl)carbamate]
925	O=C1Nc2ccc(Cl)cc2[C@@]2(CCCN(C(=O)[C@H](CC3CC3)NC(=O)c3ccc(F)c(F)c3)C2)O1 [Example 202, N-((S)-1-((R)-6-chloro-2-oxo-1,2-dihydrospiro[benzo[d][1,3]oxazine-4,3′-piperidin]-1′-yl)-3-cyclopropyl-1-oxopropan-2-yl)-3,4-difluorobenzamide]
244	COC(=O)Nc1ccc(C(=O)N[C@@H](CC2CC2)C(=O)N2CCC[C@@]3(C2)OC(=O)Nc2ccc(Cl)cc23)cn1 [Example 204]
72.2	Nc1ccc(C(=O)N[C@@H](CC2CC2)C(=O)N2CCC[C@@]3(C2)OC(=O)Nc2ccc(Cl)cc23)cn1 [Example 205]
8750	O=C1Nc2ccc(Cl)cc2[C@@]2(CCCN(C(=O)[C@H](CC3CC3)NC(=O)c3cnc4c(c3)CCN4)C2)O1 [Example 207]
0.22	O=C1Nc2ccc(Cl)c(F)c2[C@@]2(CCCN(C(=O)[C@H](CC3CC3)NC(=O)c3ccc4[nH]c(=O)cc(O)c4c3)C2)O1 [Example 210]
39.6	CC(=O)Oc1cc(=O)[nH]c2ccc(C(=O)N[C@@H](Cc3ccccc3)C(=O)N3CCC[C@@]4(C3)OC(=O)Nc3ccc(Cl)c(F)c34)cc12 [Example 211]
133	O=C1Nc2ccc(Cl)c(F)c2[C@@]2(CCCN(C(=O)[C@H](Cc3ccccc3)NC(=O)c3ccc(NCC(F)(F)F)nc3)C2)O1 [Example 212]
246	N#Cc1n[nH]c2cc(C(=O)N[C@@H](Cc3ccccc3)C(=O)N3CC[C@@]4(C3)OC(=O)Nc3ccc(Cl)cc34)ccc12 [Example 218]
2310	NC(=O)c1n[nH]c2cc(C(=O)N[C@@H](Cc3ccccc3)C(=O)N3CC[C@@]4(C3)OC(=O)Nc3ccc(Cl)cc34)ccc12 [Example 219]
